Assay results published in patent US20130025073A1, “DETERGENT COMPOSITIONS” (priority 2011, published 2013).

Molecular target: T1, Protease (Purafect Prime®) (Bacillus amyloliquefaciens, UniProt P00782, Y324L)
T1 construct: purchased Genencor International, Palo Alto Purafect Prime®
Assay: Stability of Protease in amine neutralized-anionic surfactant-containing detergent (Example 10) after incubation
Format: physicochemical
Settings: Detergent example 10, pH 8.2, 3 weeks and 6 weeks 30° C., versus a nil PBA reference
Experimental: Test of stability of Protease in an Amine Neutralized-Anionic Surfactant-Containing Detergent after Incubation in Detergent, Example 10, at pH 8.2
A detergent composition, example 10, nil enzyme, nil calcium chloride dihydrate and nil phenylboronic acid (PBA), balanced to pH 8.2 using monoethanolamine, was prepared.
The protease, that sold under the trade name of Purafect Prime®, by Genencor International, Palo Alto (38.7 mg active Protease protein in 100 g detergent), was added to the above detergent. Each detergent sample was determined for the initial residual enzyme activity before incubation (Initial reference samples).
The residual enzyme activity for each sample was determined after incubation at 30° C. for 3 weeks and 6 weeks and compared to their reference sample. The residual activity was determined using the standard enzyme activity assays for the relevant enzyme.
Detergent formulations A-D, 5 g pH 8.2, were placed in duplicate into a 7 ml glass vial with an air tight lid. The residual enzyme activity was determined for the initial samples, in duplicate, before incubation.
The samples were placed into an incubator for 3 weeks and 6 weeks at 30° C. Immediately after incubation, the samples were analysed for both residual Protease. In this test the residual activity of 100% equals no loss of Protease activity compared to initial residual enzyme activity before incubation.

T1 sequence (P00782 108-382 Y324L): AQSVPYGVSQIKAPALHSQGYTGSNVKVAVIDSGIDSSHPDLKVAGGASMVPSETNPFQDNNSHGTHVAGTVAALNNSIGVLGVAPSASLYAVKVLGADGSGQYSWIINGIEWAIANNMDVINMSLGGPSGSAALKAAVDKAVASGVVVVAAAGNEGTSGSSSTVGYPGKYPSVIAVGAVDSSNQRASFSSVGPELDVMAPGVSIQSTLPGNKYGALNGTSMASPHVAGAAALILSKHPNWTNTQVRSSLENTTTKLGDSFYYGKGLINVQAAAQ

SMILES: OB(O)c1ccccc1 [PBA, phenylboronic acid]
- Effect of PBA addition on stability of the Protease: significantly improves stability of the Protease
